Tests used:
CYP 3A4 = target: T1, CYP 3A4 (Homo sapiens, UniProt P08684); assay: CYP inhibition, E. coli CYPEX membranes with probe substrates; type: in vitro ADME
T1 construct: purchased CYPEX; host or cells: E. coli
Procedure: (§1) Using E. coli CYPEX membranes in combination with specific probe substrates, the inhibition of individual CYPs by (S)-1-((2-(trifluoromethyl)phenyl)sulfonyl)piperidine-3-carboxylic acid and (R)-1-((2-(trifluoromethyl)phenyl)sulfonyl)piperidine-3-carboxylic acid was assessed (see Weaver et al., 2003, Drug Metab Dispos 31:7, 955-966).

CYP 2C9 = target: T2, CYP 2C9 (Homo sapiens, UniProt P11712); assay: as above; type: in vitro ADME
T2 construct: purchased CYPEX; host or cells: E. coli
Procedure: as §1

CYP 1A2 = target: T3, CYP 1A2 (Homo sapiens, UniProt P05177); assay: as above; type: in vitro ADME
T3 construct: purchased CYPEX; host or cells: E. coli
T3 sequence (P05177 1-516): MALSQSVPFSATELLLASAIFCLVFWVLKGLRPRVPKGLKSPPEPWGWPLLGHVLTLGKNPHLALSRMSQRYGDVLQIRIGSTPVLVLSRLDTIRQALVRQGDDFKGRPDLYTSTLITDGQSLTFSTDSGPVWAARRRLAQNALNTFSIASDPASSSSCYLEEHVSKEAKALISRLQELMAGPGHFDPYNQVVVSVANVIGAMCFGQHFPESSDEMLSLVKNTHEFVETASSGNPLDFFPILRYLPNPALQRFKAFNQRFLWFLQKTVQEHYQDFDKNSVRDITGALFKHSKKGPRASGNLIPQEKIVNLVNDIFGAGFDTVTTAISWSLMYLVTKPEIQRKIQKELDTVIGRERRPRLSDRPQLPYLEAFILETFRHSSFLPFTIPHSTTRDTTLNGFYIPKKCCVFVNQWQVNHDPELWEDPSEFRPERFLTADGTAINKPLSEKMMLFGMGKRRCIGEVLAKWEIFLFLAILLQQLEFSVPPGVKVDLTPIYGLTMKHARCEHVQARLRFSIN
Procedure: as §1

CYP 2D6 = target: T4, CYP 2D6 (Homo sapiens, UniProt P10635); assay: as above; type: in vitro ADME
T4 construct: purchased CYPEX; host or cells: E. coli
Procedure: as §1

CYP 2C19 = target: T5, CYP 2C19 (Homo sapiens, UniProt P33261); assay: as above; type: in vitro ADME
T5 construct: purchased CYPEX; host or cells: E. coli
Procedure: as §1

[1] = Mouse hepatocyte stability; type: in vitro ADME; conditions: male, C57BL6, cryopreserved hepatocytes in suspension, 37° C.; for hepatocyte CLint: read-out: intrinsic clearance (CLint) in mouse hepatocytes
Procedure: The intrinsic clearance (CLint) and half-life of (S)-1-((2-(trifluoromethyl)phenyl)sulfonyl)piperidine-3-carboxylic acid and (R)-1-((2-(trifluoromethyl)phenyl)sulfonyl)piperidine-3-carboxylic acid were measured in a hepatocyte suspension of cryopreserved male C57BL6 mouse hepatocytes or a mixed hepatocyte suspension of cryopreserved human hepatocytes. Briefly, the compounds were incubated with hepatocyte suspensions at 37° C. over a time course and the remaining compound at each time point was assessed by mass spectrometry (UPLC-MS/MS). CLint in mouse hepatocytes was <3 μl/min/10^6 cells and in human hepatocytes was <3 μl/min/10^6 cells for both compounds.

[2] = Plasma protein binding by rapid equilibrium dialysis, mouse plasma; type: in vitro ADME; conditions: 37° C.
Procedure: The extent to which (S)-1-((2-(trifluoromethyl)phenyl)sulfonyl)piperidine-3-carboxylic acid and (R)-1-((2-(trifluoromethyl)phenyl)sulfonyl)piperidine-3-carboxylic acid bound to plasma proteins such as albumin and alpha-1 acid glycoprotein within human or mouse blood was determined by rapid equilibrium dialysis. Compounds were incubated at 5 μM for 4 hours at 37° C. Plasma protein binding in mouse plasma was 78.1% and in human plasma was 91.5% for (S)-1-((2-(trifluoromethyl)phenyl)sulfonyl)piperidine-3-carboxylic acid. Plasma protein binding in mouse plasma was 83.8% and in human plasma was 90.5% for (R)-1-((2-(trifluoromethyl)phenyl)sulfonyl)piperidine-3-carboxylic acid.

[3] = Pharmacokinetics in mice (blood, UPLC-MS/MS); type: in vivo, mouse; conditions: for Cmax / AUC / AUC(0-inf) / half-life / clearance / Vd: mouse, whole blood, male C57Bl/6 mice, blood; for Cmax: po, orally 10 mg/kg by gavage; for AUC / AUC(0-inf) / half-life / clearance / Vd: intravenously 2 mg/kg or orally 10 mg/kg; for half-life: read-out: Half-life in blood (t1/2) (converted); for clearance: read-out: Observed clearance; for Vd: read-out: Volume of distribution (Vz)
Procedure: (§2) (S)-1-((2-(trifluoromethyl)phenyl)sulfonyl)piperidine-3-carboxylic acid was administered to male C57BI/6 mice intravenously (2 mg/kg) or orally (10 mg/kg) by gavage. Whole blood diluted with water was prepared from these dosed animals over a time course up to 24 hours post dose to allow blood concentrations of drug to be measured by UPLC-MS/MS.
as §2, with “(R)-1-((2-(trifluoromethyl)phenyl)sulfonyl)piperidine-3-carboxylic” for “(S)-1-((2-(trifluoromethyl)phenyl)sulfonyl)piperidine-3-carboxylic”

T2 sequence (P11712 whole entry): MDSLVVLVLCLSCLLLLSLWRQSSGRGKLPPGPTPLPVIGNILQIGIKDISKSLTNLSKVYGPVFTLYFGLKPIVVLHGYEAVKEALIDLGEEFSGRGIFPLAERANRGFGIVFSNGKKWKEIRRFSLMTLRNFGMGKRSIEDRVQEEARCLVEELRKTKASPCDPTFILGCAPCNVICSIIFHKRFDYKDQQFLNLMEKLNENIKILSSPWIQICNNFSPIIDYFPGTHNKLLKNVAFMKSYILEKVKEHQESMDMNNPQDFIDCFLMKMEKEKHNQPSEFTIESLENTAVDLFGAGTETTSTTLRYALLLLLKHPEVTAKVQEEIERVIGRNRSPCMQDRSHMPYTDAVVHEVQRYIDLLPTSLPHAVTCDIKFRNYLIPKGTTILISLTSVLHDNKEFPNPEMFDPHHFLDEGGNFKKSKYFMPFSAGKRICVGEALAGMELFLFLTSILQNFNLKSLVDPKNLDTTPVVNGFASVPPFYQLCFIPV
T1 sequence (P08684 whole entry): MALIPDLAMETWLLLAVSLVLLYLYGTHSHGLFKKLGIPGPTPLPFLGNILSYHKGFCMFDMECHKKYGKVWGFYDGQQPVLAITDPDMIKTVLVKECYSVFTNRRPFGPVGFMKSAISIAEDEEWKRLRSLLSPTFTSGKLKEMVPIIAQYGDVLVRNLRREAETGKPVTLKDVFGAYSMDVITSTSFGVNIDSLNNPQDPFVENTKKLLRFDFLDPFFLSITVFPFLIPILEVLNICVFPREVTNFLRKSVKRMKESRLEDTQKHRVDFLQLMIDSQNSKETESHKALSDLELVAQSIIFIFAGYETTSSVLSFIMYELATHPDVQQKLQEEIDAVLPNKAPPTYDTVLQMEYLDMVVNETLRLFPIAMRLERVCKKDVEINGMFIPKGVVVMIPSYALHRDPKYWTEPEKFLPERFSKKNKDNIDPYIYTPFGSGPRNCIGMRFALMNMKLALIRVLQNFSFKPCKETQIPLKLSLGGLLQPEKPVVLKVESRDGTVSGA
T4 sequence (P10635 whole entry): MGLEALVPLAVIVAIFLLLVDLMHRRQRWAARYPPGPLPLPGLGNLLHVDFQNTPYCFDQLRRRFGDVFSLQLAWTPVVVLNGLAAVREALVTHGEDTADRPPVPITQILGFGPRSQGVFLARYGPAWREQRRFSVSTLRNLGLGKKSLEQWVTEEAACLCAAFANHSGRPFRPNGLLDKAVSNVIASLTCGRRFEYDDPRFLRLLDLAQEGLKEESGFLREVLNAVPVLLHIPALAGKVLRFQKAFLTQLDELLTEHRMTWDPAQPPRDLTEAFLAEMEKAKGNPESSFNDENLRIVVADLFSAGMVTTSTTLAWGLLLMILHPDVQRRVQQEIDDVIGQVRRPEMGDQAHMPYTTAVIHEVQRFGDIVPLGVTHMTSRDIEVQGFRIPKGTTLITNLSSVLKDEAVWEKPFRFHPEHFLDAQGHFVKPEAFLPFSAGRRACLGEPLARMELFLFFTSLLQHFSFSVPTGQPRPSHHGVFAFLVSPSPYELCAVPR
T5 sequence (P33261 whole entry): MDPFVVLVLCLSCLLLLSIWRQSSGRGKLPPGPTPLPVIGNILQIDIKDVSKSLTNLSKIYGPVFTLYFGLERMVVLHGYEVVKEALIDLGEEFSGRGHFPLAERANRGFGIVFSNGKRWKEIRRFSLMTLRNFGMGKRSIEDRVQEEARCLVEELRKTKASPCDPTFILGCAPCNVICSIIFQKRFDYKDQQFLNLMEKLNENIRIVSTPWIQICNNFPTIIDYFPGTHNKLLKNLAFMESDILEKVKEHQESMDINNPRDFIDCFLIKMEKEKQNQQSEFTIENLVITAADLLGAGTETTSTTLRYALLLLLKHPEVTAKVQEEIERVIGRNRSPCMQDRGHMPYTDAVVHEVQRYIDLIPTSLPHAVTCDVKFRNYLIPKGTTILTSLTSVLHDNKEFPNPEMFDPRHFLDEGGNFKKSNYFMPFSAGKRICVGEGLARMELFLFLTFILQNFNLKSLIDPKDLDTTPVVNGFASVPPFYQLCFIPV

| IC50 (CYP 3A4) [µM] | IC50 (CYP 2C9) [µM] | IC50 (CYP 1A2) [µM] | IC50 (CYP 2D6) [µM] | IC50 (CYP 2C19) [µM] | half-life [1] [min] | hepatocyte CLint [1] [µL/min/1e6 cells] | fraction unbound at 4 h, 5 μM [2] | Cmax [3] [ng/mL] | AUC [3] [ng·h/mL] | AUC(0-inf) [3] [ng·h/mL] | half-life [3] [min] | clearance [3] [mL/min/kg] | Vd [3] [L/kg] | AUC lower than S enantiomer ([3]; mice, Examples 7 and 8) [fold] | t½ shorter than S enantiomer ([3]; mice, Examples 7 and 8) [fold] | SMILES |
| --- | --- | --- | --- | --- | --- | --- | --- | --- | --- | --- | --- | --- | --- | --- | --- | --- |
| > 50 | > 50 | > 50 | > 50 | > 50 | > 460 | < 3 | 0.219 | 33500 | 54200 | 54400 | 72 | 4.7 | 0.49 |  |  | O=C(O)[C@H]1CCCN(S(=O)(=O)c2ccccc2C(F)(F)F)C1 [(S)-1-((2-(Trifluoromethyl)phenyl)sulfonyl)piperidine-3-carboxylic acid] |
| > 50 | > 50 | > 50 | > 50 | > 50 | > 460 | < 3 | 0.162 | 15600 | 24200 | 24700 | 32.4 | 8.2 | 0.38 | 2.2 | 2.2 | O=C(O)[C@@H]1CCCN(S(=O)(=O)c2ccccc2C(F)(F)F)C1 [(R)-1-((2-(Trifluoromethyl)phenyl)sulfonyl)piperidine-3-carboxylic acid] |
